The results in this text go back to ChEMBL document CHEMBL3526001, “Attenuation of intestinal absorption by major efflux transporters: quantitative tools and strategies using a Caco-2 model” (Drug Metab Dispos, 2011).

Data set [1] can be described thus: clinical. The conditions noted are these: human, in vivo.
Description: Fraction absorbed in human
Data set [2] can be described thus: in vitro. The conditions noted are these: human, Caco-2.
Data set [3] is described as follows: in vitro. The conditions noted are these: human, Caco-2. This is another data set of the same source.
Data set [4] deals with P-gp. The data set is described as follows: in vitro. The note with it: human.
Data set [5] can be described thus: in vitro. The conditions noted are these: human, Caco-2. This is another data set of the same source.

Usually Papp B→A stands for how fast a substance crosses the layer from the basolateral side. As a reminder, the Papp A→B is the apparent permeability from the apical to the basolateral side of a cell layer. High values mean ready permeation, low ones poor permeation. One may read the efflux ratio as a quotient of directional permeabilities that is used to spot active efflux.

With `OCCN(CCO)c1nc(N2CCCCC2)c2nc(N(CCO)CCO)nc(N3CCCCC3)c2n1` [DIPYRIDAMOLE], the Fa in data set [1] was found to be 66%.

The compound `O=C(O)CN(CCN(CC(=O)O)Cc1ccccc1O)Cc1ccccc1O` displayed a Papp B→A at 2 h, 10 µM in data set [2] of 0.4 nm/s. In addition, the Papp A→B at 2 h, 10 µM in data set [3] amounted to 0.2 nm/s. In addition, the efflux ratio at 2 h, 10 µM in data set [4] (Caco-2, with LY335979 1 uM) stood at 2; in data set [5] it was 2.1.

Regarding `OC(Cn1cncn1)(Cn1cncn1)c1ccc(F)cc1F` [FLUCONAZOLE], the Papp B→A at 2 h, 10 µM in data set [2] turned out to be 67 nm/s. The compound also gave a Papp A→B at 2 h, 10 µM in data set [3] of 116 nm/s. In addition, the efflux ratio at 2 h, 10 µM in data set [4] (Caco-2) was found to be 0.1; in data set [5] it was 0.6.

The compound `COc1cc2nc(N3CCN(C(=O)c4ccco4)CC3)nc(N)c2cc1OC` [PRAZOSIN] had a Papp B→A at 2 h, 10 µM in data set [2] of 111 nm/s. Besides, the Fa in data set [1] was 100%. Further, in data set [3], the Papp A→B at 2 h, 10 µM was found to be 62 nm/s. The efflux ratio at 2 h, 10 µM in data set [5] came to 1.8.

As to `CNCCC(Oc1ccc(C(F)(F)F)cc1)c1ccccc1` (centres undefined) [FLUOXETINE], the Fa in data set [1] amounted to 70%.

As for `CNS(=O)(=O)Cc1ccc2[nH]cc(CCN(C)C)c2c1`, in data set [2], the Papp B→A at 2 h, 10 µM stood at 22 nm/s. Moreover, the Papp A→B at 2 h, 10 µM in data set [3] amounted to 15 nm/s. Moreover, the efflux ratio at 2 h, 10 µM in data set [4] (Caco-2, with LY335979 1 uM) came to 0.5; in data set [5], 1.4.

On to `CC(C)c1nc(N(C)S(C)(=O)=O)nc(-c2ccc(F)cc2)c1/C=C/[C@@H](O)C[C@@H](O)CC(=O)O` [ROSUVASTATIN], for which the Papp B→A at 2 h, 10 µM in data set [2] is 75 nm/s. This compound returned a Fa in data set [1] of 20%. Moreover, the Papp A→B at 2 h, 10 µM in data set [3] was 5 nm/s. The efflux ratio at 2 h, 10 µM in data set [5] is 15.9.

For `CC(=O)N1CCN(c2ccc(OCC3COC(Cn4ccnc4)(c4ccc(Cl)cc4Cl)O3)cc2)CC1` (centres undefined) [KETOCONAZOLE], the Papp B→A at 2 h, 10 µM in data set [2] is 51 nm/s. Moreover, in data set [1], the Fa was found to be 90%. In data set [3], this compound returned a Papp A→B at 2 h, 10 µM of 180 nm/s.

For `CN(C)C(=O)C(CCN1CCC(O)(c2ccc(Cl)cc2)CC1)(c1ccccc1)c1ccccc1` [LOPERAMIDE], in data set [2], the Papp B→A at 2 h, 10 µM was determined as 76 nm/s. Further, in data set [3], the Papp A→B at 2 h, 10 µM is 58 nm/s.

As to `COc1cc(Cc2cnc(N)nc2N)cc(OC)c1OC` [TRIMETHOPRIM], the Papp B→A at 2 h, 10 µM in data set [2] was 112 nm/s. Further, the Papp A→B at 2 h, 10 µM in data set [3] was 159 nm/s. In addition, the efflux ratio at 2 h, 10 µM in data set [4] (Caco-2) turned out to be 0.4; in data set [5] it was 0.7.

In data set [1], `O=C(O)COCCN1CCN(C(c2ccccc2)c2ccc(Cl)cc2)CC1` (centres undefined) [CETIRIZINE] had a Fa of 66%.

In data set [1], `COCc1c(C(C)C)nc(C(C)C)c(/C=C/[C@@H](O)C[C@@H](O)CC(=O)O)c1-c1ccc(F)cc1` [CERIVASTATIN] registered a Fa of 98%.

On to `CC(=O)O[C@H]1C(=O)[C@@]2(C)[C@H]([C@H](OC(=O)c3ccccc3)[C@]3(O)C[C@H](OC(=O)[C@H](O)[C@@H](NC(=O)c4ccccc4)c4ccccc4)C(C)=C1C3(C)C)[C@]1(OC(C)=O)CO[C@@H]1C[C@@H]2O` [PACLITAXEL], for which, in data set [1], the Fa turned out to be 6%.

In turn, `CC(C)CN(C[C@@H](O)[C@H](Cc1ccccc1)NC(=O)O[C@H]1CCOC1)S(=O)(=O)c1ccc(N)cc1` gave a Fa in data set [1] of 70%. The compound also displayed a Papp A→B at 2 h, 10 µM in data set [3] of 80 nm/s.

Take `CCN(CC)CCCC(C)Nc1ccnc2cc(Cl)ccc12` (centres undefined) [CHLOROQUINE]: in data set [1], the Fa was 89%.

Take `Cc1cn([C@H]2C[C@H](N=[N+]=[N-])[C@@H](CO)O2)c(=O)[nH]c1=O` [ZIDOVUDINE]: the Papp B→A at 2 h, 10 µM in data set [2] stood at 96 nm/s. The compound further returned a Fa in data set [1] of 90%. In addition, the Papp A→B at 2 h, 10 µM in data set [3] was found to be 67 nm/s. The efflux ratio at 2 h, 10 µM in data set [5] was 1.4.

In data set [2], `O=C1CN(/N=C/c2ccc([N+](=O)[O-])o2)C(=O)N1` [NITROFURANTOIN] came in with a basolateral-to-apical permeability (Papp B→A) at 2 h, 10 µM of 111 nm/s. The same compound showed a Fa in data set [1] of 100%. The same compound showed a Papp A→B at 2 h, 10 µM in data set [3] of 11 nm/s. The efflux ratio at 2 h, 10 µM in data set [5] was found to be 10.4.

In turn, `Cc1ccc(NC(=O)c2ccc(CN3CCN(C)CC3)cc2)cc1Nc1nccc(-c2cccnc2)n1` [IMATINIB] came in with a Fa in data set [1] of 67%.

`CC(C)c1nc(CN(C)C(=O)N[C@H](C(=O)N[C@@H](Cc2ccccc2)C[C@H](O)[C@H](Cc2ccccc2)NC(=O)OCc2cncs2)C(C)C)cs1` [RITONAVIR] showed a Papp B→A at 2 h, 10 µM in data set [2] of 92 nm/s. Besides, in data set [1], the Fa was 66%. In data set [3], this compound had a Papp A→B at 2 h, 10 µM of 21 nm/s.
